According to paper PMC7129073 (Clinical Microbiology and Infection, 2015):
Values after ≈ are worked out from the molar mass of the structure shown. Like-named read-outs stand apart in the source and are kept apart here.

Columns and labels:
[1] = test system: viridans group streptococci (VGS); test: MIC; format: cell-based
nontyphoidal Salmonella = test: Agar dilution, isolates from chickens 1998–2004; format: cell-based, Salmonella spp.
[2] = test system: Pseudomonas aeruginosa (PSA); test: Vitek 2 susceptibility, urine isolates of children; format: cell-based; settings: both departments
[3] = test system: Total pathogens in community acquired pneumonia; test: Sensitivity of CAP pathogens with/without antibiotic pretreatment; format: cell-based
S. pneumoniae [4] = test: Broth microdilution; format: cell-based, Streptococcus pneumoniae; settings: 275 isolates
Enterococcus sp = test: Sensitivity of CAP pathogens with/without antibiotic pretreatment; format: cell-based
H. influenzae = test: as above; format: cell-based, Haemophilus influenzae
E. coli = test: as above; format: cell-based, Escherichia coli
P. aeruginosa = test: as above; format: cell-based, Pseudomonas aeruginosa; settings: Abs. 3
S. pneumoniae [5] = test: E-test MIC, children with URTI, Brazil; format: cell-based, Streptococcus pneumoniae
S. aureus = test: Sensitivity of CAP pathogens with/without antibiotic pretreatment; format: cell-based, Staphylococcus aureus
S. -pneumoniae = test: as above; format: cell-based, Streptococcus pneumoniae
Other Haemophilus sp. = test: as above; format: cell-based
Nocardia spp. = test: E-test on Mueller Hinton agar, 81 clinical isolates; format: cell-based; settings: for MIC50 / MIC90: Nocardia; for MIC range: read after 48 and 72 h
Kl. pneumoniae = test: Sensitivity of CAP pathogens with/without antibiotic pretreatment; format: cell-based, Klebsiella pneumoniae
Staph. coaq (−) = test: as above; format: cell-based, coagulase-negative Staphylococcus
[6] = test system: pathogens in community acquired pneumonia of different severity; test: Sensitivity of CAP pathogens by Fine severity group; format: cell-based
[7] = test system: Other non-fermenting bacteria; test: Sensitivity of CAP pathogens with/without antibiotic pretreatment; format: cell-based
S. pyogenes = test: as above; format: cell-based, Streptococcus pyogenes; settings: Abs. 4
S. pneumoniae [8] = test: PROTEKT Italy, NCCLS microdilution; format: cell-based, Streptococcus pneumoniae
Other Enterobacteriacae = test: Sensitivity of CAP pathogens with/without antibiotic pretreatment; format: cell-based, Enterobacteriaceae
C. parapsilosis = test: Antifungal susceptibility; format: cell-based, Candida parapsilosis
C. albicans = test: Antifungal susceptibility; format: cell-based, Candida albicans
S. pneumoniae (SPN) = test: NCCLS broth microdilution, fluoroquinolones 1999–2004; format: cell-based, Streptococcus pneumoniae; settings: Streptococcus pneumoniae, read-out: MIC90 during the six years, 1999–2004
MSSA = test: Agar dilution MIC; format: cell-based, Staphylococcus aureus; settings: for MIC50 / MIC90: Staphylococcus aureus, MSSA; for MIC range: n = 200
Acinetobacter = test: Disk diffusion; format: cell-based; settings: 37 isolates selected as resistant to beta-lactams
MRSA = test: Agar dilution MIC; format: cell-based, Staphylococcus aureus; settings: for MIC50 / MIC90: Staphylococcus aureus, MRSA; for MIC range: n = 50
[9] = test system: Pseudomonas putida clinical isolates; test: Agar dilution MIC; format: cell-based
enterococci = test: Disk diffusion and E-test, faecal isolates of cancer patients; format: cell-based, Enterococcus; settings: 38 strains
[10] = test system: methicillin susceptible Staphylococcus aureus; test: NCCLS agar dilution MIC; format: cell-based
[11] = test system: methicillin resistant Staphylococcus aureus; test: NCCLS agar dilution MIC; format: cell-based; settings: n = 53
[12] = test system: glycopeptide intermediate Staphylococcus species (GISS); test: VITEK II, screening plate and E test, blood isolates; format: cell-based, coagulase-negative Staphylococci
E. faecium = test: E-test susceptibility; format: cell-based, Enterococcus faecium
[13] = Linezolid in paediatric oncohaematological patients, retrospective; format: in vivo, human
[14] = test system: viridans group streptococci (VgS) and Streptococcus bovis; test: Broth microdilution and disk diffusion; format: cell-based; settings: nine species
E. faecalis = test: E-test susceptibility; format: cell-based, Enterococcus faecalis
N.gonorrhoeae = test: microbe, parasite or virus in culture; format: cell-based; settings: Neisseria gonorrhoeae
Salmonella enterica = test: VITEK, NCCLS microdilution and disc diffusion of quinolones; format: cell-based
Shigella spp. = test: Disk diffusion, stool isolates Tehran; format: cell-based; settings: 96 isolates
S. pneumoniae [15] = format: cell-based, Streptococcus pneumoniae
[16] = test system: Streptococcus agalactiae strains P0162 and P0425; test: Microdilution; format: cell-based
[17] = Phase 3 trial, complicated intra-abdominal infections; format: in vivo, human

NCC[C@H](O)C(=O)N[C@@H]1C[C@H](N)[C@@H](O[C@H]2O[C@H](CN)[C@@H](O)[C@H](O)[C@H]2O)[C@H](O)[C@H]1O[C@H]1O[C@H](CO)[C@@H](O)[C@H](N)[C@H]1O [AM, amikacin]
MIC50 [1]: 0.12 µg/mL (≈ 0.205 µM)
MIC90 [1]: 1 µg/mL (≈ 1.71 µM)
resistance (nontyphoidal Salmonella; Belgian collection (caecal samples; Belgium, France, Netherlands)): 46%
resistance (nontyphoidal Salmonella; Germany (carcass meat)): 16%
Susceptible isolates [2]: 74-100%

CC1(C)S[C@@H]2[C@H](NC(=O)[C@H](N)c3ccc(O)cc3)C(=O)N2[C@H]1C(=O)O [amoxicillin]
% of sensitive strains ([3]; after pretreatment, Abs. 48): 54.2%
% of sensitive strains ([3]; without pretreatment, Abs. 95): 69.5%
Susceptibility (S. pneumoniae [4]): 99.3%
% of sensitive strains (Enterococcus sp; after pretreatment, Abs. 0): 0.0%
% of sensitive strains (Enterococcus sp; without pretreatment, Abs. 1): 100.0%
% of sensitive strains (H. influenzae; after pretreatment, Abs. 10): 80.0%
% of sensitive strains (H. influenzae; without pretreatment, Abs. 26): 88.5%
% of sensitive strains (E. coli; after pretreatment, Abs. 1): 100.0%
% of sensitive strains (E. coli; without pretreatment, Abs. 5): 60.0%
% of sensitive strains (P. aeruginosa; after pretreatment): 0.0%
% of sensitive strains (P. aeruginosa; without pretreatment): 0.0%
resistant (R) (S. pneumoniae [5]; 137 isolates): 0.7%
MIC (S. pneumoniae [5]; Streptococcus pneumoniae, read-out: MIC of the one resistant isolate): 3 µg/mL
% of sensitive strains (S. aureus; after pretreatment, Abs. 4): 0.0%
% of sensitive strains (S. aureus; without pretreatment, Abs. 11): 9.1%
% of sensitive strains (S. -pneumoniae; after antibiotic pretreatment, Abs. 3): 66.7%
% of sensitive strains (S. -pneumoniae; without antibiotic pretreatment, Abs. 13): 92.3%
% of sensitive strains (Other Haemophilus sp.; after pretreatment, Abs. 11): 90.9%
% of sensitive strains (Other Haemophilus sp.; without pretreatment, Abs. 21): 90.5%
MIC50 (Nocardia spp.): 12 µg/mL (≈ 32.8 µM)
MIC90 (Nocardia spp.): 32 µg/mL (≈ 87.6 µM)
% of sensitive strains (Kl. pneumoniae; after pretreatment, Abs. 5): 0.0%
% of sensitive strains (Kl. pneumoniae; without pretreatment, Abs. 4): 0.0%
% of sensitive strains (Staph. coaq (−); after pretreatment, Abs. 2): 50.0%
% of sensitive strains (Staph. coaq (−); without pretreatment, Abs. 4): 50.0%
sensitivity, total strains ([6]; higher severity group (Fine scores >70)): 55,8%
sensitivity, total strains ([6]; lower severity group (Fine scores <70)): 64.8%
% of sensitive strains ([7]; after pretreatment, Abs. 0): 0.0%
% of sensitive strains ([7]; without pretreatment, Abs. 1): 0.0%
% of sensitive strains (S. pyogenes; after pretreatment): 75.0%
% of sensitive strains (S. pyogenes; without pretreatment): 100.0%
susceptible (S. pneumoniae [8]; year 1: 2002): 93.8%
susceptible (S. pneumoniae [8]; year 2: 2003): 96.6%
% of sensitive strains (Other Enterobacteriacae; after pretreatment, Abs. 5): 20.0%
% of sensitive strains (Other Enterobacteriacae; without pretreatment, Abs. 2): 50.0%

C[C@@H]1[C@H](O)[C@@H](C)/C=C/C=C/C=C/C=C/C=C/C=C/C=C/[C@H](O[C@@H]2O[C@H](C)[C@@H](O)[C@H](N)[C@@H]2O)C[C@@H]2O[C@](O)(C[C@@H](O)C[C@@H](O)[C@H](O)CC[C@@H](O)C[C@@H](O)CC(=O)O[C@H]1C)C[C@H](O)[C@H]2C(=O)O [amphotericin B]
resistant (C. parapsilosis): 10%
susceptibility of all tested strains (C. albicans): susceptible

Clc1ccc(COC(Cn2ccnc2)c2ccc(Cl)cc2Cl)cc1 (centres unmarked) [econazole]
resistant and intermediate susceptibility (C. parapsilosis): 63%
intermediate susceptibility (C. albicans): 2%

Nc1nc(=O)[nH]cc1F [flucitozine]
susceptibility of all tested strains (C. albicans): susceptible

COc1c(N2CCNC(C)C2)c(F)cc2c(=O)c(C(=O)O)cn(C3CC3)c12 (centres unmarked) [gatifloxacin]
MIC90 (S. pneumoniae (SPN)): 0.5 µg/mL (≈ 1.33 µM)
MIC50 (MSSA): < 0.0625 µg/mL
MIC90 (MSSA): < 0.125 µg/mL
MIC range (MSSA): 0.0625 to 4 µg/mL (≈ 0.166 to 10.7 µM)
MIC50 [1]: 0.25 µg/mL (≈ 0.666 µM)
MIC90 [1]: 0.25 µg/mL (≈ 0.666 µM)
resistant isolates (Acinetobacter): 83.8%
MIC50 (MRSA): < 4 µg/mL
MIC90 (MRSA): < 4 µg/mL
MIC range (MRSA): 4 µg/mL (≈ 10.7 µM)
MIC [9]: > 128 µg/mL

CC(=O)NC[C@H]1CN(c2ccc(N3CCOCC3)c(F)c2)C(=O)O1 [linezolid]
sensitivity of all isolated strains (enterococci): All the isolated strains were sensitive
MIC50 (MSSA): < 2 µg/mL
MIC90 (MSSA): < 2 µg/mL
MIC range (MSSA): 2 µg/mL (≈ 5.93 µM)
MIC50 [1]: 1 µg/mL (≈ 2.96 µM)
MIC90 [1]: 1 µg/mL (≈ 2.96 µM)
susceptibility of all isolates ([1]; NCCLS): All isolates were susceptible
MIC50 ([10]; Staphylococcus aureus): 2 µg/mL (≈ 5.93 µM)
MIC90 ([10]; Staphylococcus aureus): 2 µg/mL (≈ 5.93 µM)
MIC range ([10]; n = 41): 0.5 to 2 µg/mL
MIC50 (Nocardia spp.): 1 µg/mL (≈ 2.96 µM)
MIC90 (Nocardia spp.): 2 µg/mL (≈ 5.93 µM)
MIC range (Nocardia spp.): 0.047 to 3 µg/mL
MIC range [11]: 1 to 32 µg/mL
sensitivity of all GISS strains [12]: all GISS strains demonstrated sensitivity
Susceptibility (E. faecium; ICU): 98%
Susceptibility (E. faecium; non-ICU): 99%
clinical response ([13]; 10 mg/kg bid iv, combined therapy, 38/50 courses): 76%
courses discontinued due to exacerbation of cytopenia ([13]; 1 course): 2%
eradication of Gram(+) organisms in mixed fungal and bacterial infection ([13]; 4/50 courses): 8%
complete resolution after ineffective vancomycin therapy ([13]; 8/16): 50%
eradication, documented Gram(+) infection ([13]; 13/13): 100%
complete resolution of the symptoms ([13]; 34/50 courses): 68%
% S, range between species [14]: 99.1 – 100.0%
MIC50 (MRSA): < 2 µg/mL
MIC90 (MRSA): < 2 µg/mL
MIC range (MRSA): 2 µg/mL (≈ 5.93 µM)
Susceptibility (E. faecalis; ICU, SRGA breakpoints, tigecycline tentative ≤2 μg/ml): 98%
Susceptibility (E. faecalis; non-ICU): 99%

Clc1ccc(COC(Cn2ccnc2)c2ccc(Cl)cc2Cl)c(Cl)c1 (centres unmarked) [miconazole]
resistant and intermediate susceptibility (C. parapsilosis): 50%
susceptibility of all tested strains (C. albicans): susceptible

CN(C)c1ccc(O)c2c1C[C@H]1C[C@H]3[C@H](N(C)C)C(O)=C(C(N)=O)C(=O)[C@@]3(O)C(O)=C1C2=O [minocycline]
MIC50 (Nocardia spp.): 1.5 µg/mL (≈ 3.28 µM)
MIC90 (Nocardia spp.): 3 µg/mL (≈ 6.56 µM)
MIC range (Nocardia spp.): 0.016 to 4 µg/mL
resistant isolates (Acinetobacter): 45.9%
MIC [9]: > 16 µg/mL

C[C@@H]1[C@H](O)[C@@H](C)/C=C/C=C/CC/C=C/C=C/C=C/C=C/C(O[C@H]2O[C@H](C)[C@@H](O)[C@H](N)[C@@H]2O)CC2O[C@](O)(CC(O)C(O)CCC(O)CC(O)CC(O)CC(=O)O[C@H]1C)CC(O)C2C(=O)O (some centres unmarked) [nystatin]
resistant (C. parapsilosis): 10%
intermediate susceptibility (C. albicans): 2%
resistance (C. albicans): 2%

CC1COc2c(N3CCN(C)CC3)c(F)cc3c(=O)c(C(=O)O)cn1c23 (centres unmarked) [ofloxacin]
MIC (N.gonorrhoeae; strain 76mu6): 8 µg/mL (≈ 22.1 µM)
MIC (N.gonorrhoeae; strain 76mu10): 8 µg/mL (≈ 22.1 µM)
MIC (N.gonorrhoeae; strain 92mu6): 4 µg/mL (≈ 11.1 µM)
MIC (N.gonorrhoeae; strain 92mu13): 4 µg/mL (≈ 11.1 µM)
MIC (Salmonella enterica; read-out: NCCLS MIC, 37 NAL-R strains): 0.25 to 1 µg/mL (≈ 0.692 to 2.77 µM)
MIC (Salmonella enterica; read-out: NCCLS MIC, NAL-S strains): ≤ 0.06 µg/mL
sensitive (Shigella spp.): 100%
resistance rate ([12]; 73 GISS strains): 84,9%
resistant (S. pneumoniae [15]): 0%
resistant isolates (Acinetobacter): 43.2%

C[C@H]1COc2c(C3(N)CC3)c(F)cc3c(=O)c(C(=O)O)cn1c23 [pazufloxacin]
MIC [9]: > 128 µg/mL

C[C@@H]1CN(c2c(F)c(N)c3c(=O)c(C(=O)O)cn(C4CC4)c3c2F)C[C@H](C)N1 [sparfloxacin]
MIC ([16]; strain P0162 (ParC Ser79Phe, GyrA Glu85Ala)): 4 µg/mL (≈ 10.2 µM)
MIC ([16]; strain P0425 (ParC Ser79Phe, GyrA Glu85Lys)): > 32 µg/mL
MIC [9]: > 128 µg/mL

CC1(C)S[C@@H]2[C@H](NC(=O)[C@H](C(=O)O)c3ccsc3)C(=O)N2[C@H]1C(=O)O [ticarcillin]
Susceptible isolates [2]: 74-100%
resistant isolates (Acinetobacter): 86.5%

imipenem/cilastatin [IMI/CIS]
clinical cure rate at TOC, ME group ([17]; TGC 100 mg then 50 mg q12h iv, IMI/CIS 500/500 mg q6h, 5–14 days): 82.4%
nausea ([17]; adverse events): 24.8%
vomiting ([17]; adverse events): 19.4%
clinical cure rate at TOC, m-mITT cohort ([17]; same regimens): 78.2%

quinupristin/dalfopristin
MIC50 ([1]; 107 strains, 1990–2003): 0.5 µg/mL
MIC90 ([1]; 107 strains, 1990–2003): 2 µg/mL
sensitivity of all GISS strains [12]: all GISS strains demonstrated sensitivity
% S, range between species [14]: 99.0 – 100.0%
